Assay [1] has as its system bleomycin-induced lung fibrosis. As to the kind of experiment: Bleomycin-induced lung fibrosis model in mice. The class given is in vivo, C57BL/6J mice. To be noted: day 21. As for the experimental part: Overview. The most common animal model of pulmonary fibrosis is the bleomycin-induced lung fibrosis model in rodents. This model is commonly used to investigate biology and potential therapies for fibrotic diseases affecting the lung, such as idiopathic pulmonary fibrosis (IPF). Bleomycin, a cytotoxic drug, is administered to mice or rats, and causes direct cell injury triggered by DNA strand breaks, which leads to an overproduction of reactive oxygen species causing inflammation, pulmonary toxicity, activation of fibroblasts and subsequent fibrosis. Fibrosis is hallmarked by aberrant activation of lung epithelial cells and accumulation of fibroblasts and myofibroblasts with excessive production of extracellular matrix such as collagen.
Hydroxyproline is a major component of protein collagen, and plays a key role in the stability of the collagen triple helix. […]
Procedure. […] The snap frozen portion of the lung tissue was subjected to hydroxyproline quantification, which is used as a common biomarker of fibrosis. […] The histological sections were scored using a modified Ashcroft scale, the number of mononuclear cell aggregates and alveolar mixed infiltrates as well as the levels of collagen. The mice were weighed on day seven, fourteen, and twenty-one to monitor weight changes, and mortality and clinical observations were recorded daily. […]

Assay [2] relates to A549 cells. In words: Wound healing assay in A549 cells with TGF-β. The format is cell-based. To be noted: for IC50: Homo sapiens, wound healing, A549, 5 ng/ml TGF-β; for migration (wound closure): after 72 hours, vs vehicle control with TGF-β. From the text:
Overview. Epithelial to mesenchymal transition (EMT) is used to describe epithelial cells losing their cell to cell adhesion and polarity while gaining migratory and invasive properties. The process of EMT is required for normal embryonic development and wound healing, but has also been implicated in fibrosis. In humans, TGF-β signaling is the main driver of EMT, and inhibiting this pathway may be beneficial in various diseases such as fibrosis. A wound healing assay was used to study cell migration and cell-cell interaction, and probe the EMT properties of lung epithelial cells (A549) in presence of Compound 2 or Compound 4.
Procedure. A549 cells (ATCC, CCL-185) were seeded into the ImageLock plate (Essen Bioscience) at 2×10^4 cells/well in 100 μL of complete growth media. Cells were incubated overnight at 37° C., 5% CO2. The next day, cells were washed with 1×PBS and Compound 2, Compound 4, DMSO control (±TGF-β) or galunisertib (TGF-β inhibitor used as positive control) was added to the cells in a serum-free F12K media (0.2% DMSO final, 10 μM starting concentration, 3-fold dilution, 8-doses) in presence of 5 ng/ml TGF-β. Cells were incubated for 48 hours (until they reached confluency) at 37° C., 5% CO2. Wounds were simultaneously created using a WoundMaker™ (Essen Bioscience). Debris and non-attached cells were removed by gently washing once with F12K.
Test compound or control compound and TGF-β were added to the cells in F12K+10% FBS as previously described. The ImageLock plate was put into IncuCyteS3 instrument installed inside a 5% CO2 incubator. The plate was allowed to equilibrate in the IncuCyteS3 instrument for 15 minutes prior to scheduling the first scan and data recording. The plate was incubated for 72 hours at 37° C., and wound closure was recorded in real time with the IncuCyte S3 imaging system. Percentage of relative wound density was quantitatively calculated by the IncuCyte software.

Read-outs that look alike come from different tables or passages of the source.

On to `Cc1cc(-c2cnc3ccc(NC45CCC(C(C)(C)O)(CC4)CC5)nn23)n[nH]1` [Compound 2, 2-(4-((3-(5-methyl-1H-pyrazol-3-yl)imidazo[1,2-b]pyridazin-6-yl)amino)bicyclo[2.2.2]octan-1-yl)propan-2-ol], for which the Ashcroft score entry in assay [1] (20 milligrams per kilogram twice a day) is “significantly reduced”. Further, the 50% inhibitory concentration (IC50) – broadly, the concentration that inhibits the measured activity by half – was in the range of 1 to 10 µM in assay [2] (24 h, read-out: IC50 (μM) 24 h); 1 to 10 µM in assay [2] (48 h, read-out: IC50 (μM) 48 h); 1 to 10 µM in assay [2] (72 h, read-out: IC50 (μM) 72 h). Further, the “migration (wound closure)” value in assay [2] is recorded as “strongly inhibited”.

Take `CC(C)(O)C12CCC(Nc3ccc4ncc(-c5cc(C6CC6)[nH]n5)n4n3)(CC1)CC2` [Compound 4, 2-(4-((3-(5-cyclopropyl-1H-pyrazol-3-yl)imidazo[1,2-b]pyridazin-6-yl)amino)bicyclo[2.2.2]octan-1-yl)propan-2-ol]: the “reduction of hydroxyproline in lung tissue” value in assay [1] (15 milligrams per kilogram twice a day) was “greatest and most statistically significant reduction”. The concentration for half-maximal inhibition (IC50) was 1 to 10 µM in assay [2] (24 h, read-out: IC50 (μM) 24 h); 1 to 10 µM in assay [2] (48 h, read-out: IC50 (μM) 48 h); 1 to 10 µM in assay [2] (72 h, read-out: IC50 (μM) 72 h). For the same compound, in assay [2], the “migration (wound closure)” value is given as “strongly inhibited”.

The record behind these values is patent US20240360135A1, “IMIDAZO[1,2-B]PYRIDAZINYL COMPOUNDS AND USES THEREOF” (Sumitomo Pharma Oncology, Inc., priority 2021, published 2024).
